Results as given in ChEMBL document CHEMBL3580582, “The Cephalostatins. 23. Conversion of Hecogenin to a Steroidal 1,6-Dioxaspiro[5.5]nonane Analogue for Cephalostatin 11” (2015).
In brackets after ≈: the same amount, converted by molar mass.

Test system: P388
Experiment: Cytotoxicity against mouse P388 cells assessed as growth inhibition after 48 hrs by coulter particle counter analysis
Type: functional
Settings: P388, 48 h, read-out: ED50 (the source's name)

First: CC1=C(CCC(C)CCl)O[C@H]2C[C@H]3[C@@H]4CC[C@H]5CC(=O)CC[C@]5(C)[C@H]4CC(=O)[C@]3(C)[C@@H]12 (some centres undefined)
Second: C=C(C)CCC1=C(C)[C@H]2[C@H](C[C@H]3[C@@H]4CC[C@H]5CC(=O)CC[C@]5(C)[C@H]4CC(=O)[C@@]32C)O1
The EC50 of the first is higher: > 100 µg/mL for the first, 14.5 µg/mL (≈ 35.3 µM) for the second.

`CC(=O)OC[C@]1(C)CC[C@@]2(O[C@H]3C[C@H]4[C@@H]5CC[C@H]6CC(=O)CC[C@]6(C)[C@H]5CC(=O)[C@]4(C)[C@H]3[C@@H]2C)O1` and `CC(=O)OC[C@@](C)(O)CCC1=C(C)[C@H]2[C@H](C[C@H]3[C@@H]4CC[C@H]5CC(=O)CC[C@]5(C)[C@H]4CC(=O)[C@@]32C)O1` cannot be ordered by EC50: > 10 µg/mL for the first, 19.3 µg/mL (≈ 39.7 µM) for the second.

Compared with `CC(=O)O[C@H]1CC[C@@]2(C)[C@@H](CC[C@@H]3[C@@H]2CC(=O)[C@@]2(C)[C@H]3C[C@@H]3OC(CCC(C)CCl)=C(C)[C@@H]32)C1` (some centres undefined), `CC1=C(CC[C@](C)(O)CO)O[C@H]2C[C@H]3[C@@H]4CC[C@H]5CC(=O)CC[C@]5(C)[C@H]4CC(=O)[C@]3(C)[C@@H]12` is lower in EC50: > 100 µg/mL for the first, 23.4 µg/mL (≈ 52.6 µM) for the second.

Test system: not listed separately
Experiment: Cytotoxicity against human NCI60 cells
Type: functional
Settings: not given

In the case of `C[C@@H]1[C@]2(O[C@H]3C=C4[C@@H]5CC[C@H]6Cc7nc8c(nc7C[C@]6(C)[C@H]5C[C@@H](O)[C@]4(C)[C@]31O)C[C@@H]1CC[C@H]3C4=CC[C@@H]5[C@H](C)[C@@]6(OC[C@]45C(=O)C[C@@H]3[C@@]1(C)C8)OC(C)(C)C[C@H]6O)O[C@](C)(CO)C[C@H]2O` [CEPHALOSTATIN 1], the GI50 is reported as 1.8 nM.

Test system: not listed separately
Experiment: Cytotoxicity against human NCI60 cells by SRB assay
Type: functional
Settings: not given

Going from `C[C@@H]1[C@]2(O[C@H]3C=C4[C@@H]5CC[C@H]6Cc7nc8c(nc7C[C@]6(C)[C@H]5C[C@@H](O)[C@]4(C)[C@]31O)C[C@@H]1CC[C@H]3C4=C[C@@H]5O[C@]6(CCC(C)(C)O6)[C@@H](C)[C@@H]5[C@@]4(C)[C@H](O)C[C@@H]3[C@@]1(C)C8)O[C@](C)(CO)C[C@H]2O` to `C[C@@H]1[C@]2(O[C@H]3C=C4[C@@H]5CC[C@H]6Cc7nc8c(nc7C[C@]6(C)[C@H]5C[C@@H](O)[C@]4(C)[C@]31O)C[C@@H]1CC[C@H]3C4=C[C@@H]5O[C@]6(CCC(C)(C)O6)[C@@H](C)[C@@H]5[C@@]4(C)[C@H](O)C[C@@H]3[C@@]1(C)C8)O[C@@](C)(CO)C[C@H]2O`, the GI50 falls from 14 nM to 0.48 nM (29-fold).
